Measurements: patent US8580762B2, “Substituted purine and 7-deazapurine compounds” (Epizyme, Inc., priority 2010, dated 2013)
Where two headings read alike, the source gives them in different places.

Molecular target: DOT1L(1-416) (Homo sapiens, UniProt Q8TEK3)
Experiment: Determination of IC50: DOT1L(1-416) methyltransferase assay, 3H-SAM, oligonucleosome substrate, Flashplate
Format: biochemical
Conditions: read-out: DOT1L IC50
Summary of the method: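 Compounds in 10-point 3-fold DMSO dilutions were tested in reactions started with substrate mix of 200 nM [3H]-SAM, 600 nM unlabeled SAM and 20 nM oligonucleosome. Reactions ran 120 min at room temperature and were quenched with 100 μM SAM. Labeled substrate was captured on streptavidin Flashplates and counted by scintillation to give IC50.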

Sequence of DOT1L(1-416) (Q8TEK3 1-416): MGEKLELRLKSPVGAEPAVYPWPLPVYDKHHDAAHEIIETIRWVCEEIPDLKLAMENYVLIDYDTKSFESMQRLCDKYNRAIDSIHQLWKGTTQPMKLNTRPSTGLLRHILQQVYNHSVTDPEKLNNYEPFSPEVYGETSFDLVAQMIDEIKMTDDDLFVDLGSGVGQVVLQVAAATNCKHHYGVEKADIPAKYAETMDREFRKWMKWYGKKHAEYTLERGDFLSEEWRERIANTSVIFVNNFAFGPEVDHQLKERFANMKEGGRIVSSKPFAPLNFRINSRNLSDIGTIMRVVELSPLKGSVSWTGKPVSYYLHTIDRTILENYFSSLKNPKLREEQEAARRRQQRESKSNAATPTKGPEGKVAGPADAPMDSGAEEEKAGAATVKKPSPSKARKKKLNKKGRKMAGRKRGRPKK

Row | SMILES | IC50 (class symbols) [nM] | IC50 [nM]
1 | CC(C)N(C[C@H]1C[C@@H](n2ccc3c(N)ncnc32)[C@H](O)[C@@H]1O)[C@H]1C[C@@H](CCc2nc3cc(OC(F)(F)F)ccc3[nH]2)C1 [Compound 60, (1R,2S,3R,5R)-3-(4-amino-7H-pyrrolo[2,3-d]pyrimidin-7-yl)-5-((isopropyl((1r,3S)-3-(2-(5-(trifluoromethoxy)-1H-benzo[d]imidazol-2-yl)ethyl)cyclobutyl)amino)methyl)cyclopentane-1,2-diol] | < 100 | –
2 | CC(C)(C)c1ccc2[nH]c(CC[C@H]3C[C@H](N(C[C@H]4O[C@@H](n5cnc6c(N)ncnc65)[C@H](O)[C@@H]4O)CC(F)(F)F)C3)nc2c1 [Compound 80, (2R,3R,4S,5R)-2-(6-amino-9H-purin-9-yl)-5-((((1s,3R)-3-(2-(5-(tert-butyl)-1H-benzo[d]imidazol-2-yl)ethyl)cyclobutyl) (2,2,2-trifluoroethyl)amino)methyl)tetrahydrofuran-3,4-diol] | 100 to 1000 | –
3 | CN(C[C@H]1O[C@@H](n2cnc3c(N)ncnc32)[C@H](O)[C@@H]1O)[C@H]1C[C@@H](CCc2nc3cc(C4CC4)ccc3[nH]2)C1 [Compound 133, (2R,3R,4S,5R)-2-(6-amino-9H-purin-9-yl)-5-((((1r,3S)-3-(2-(5-cyclopropyl-1H-benzo[d]imidazol-2-yl)ethyl)cyclobutyl) (methyl)amino)methyl) tetrahydrofuran-3,4-diol] | < 100 | –
4 | CC(C)N(C[C@H]1C[C@@H](n2ccc3c(N)ncnc32)[C@H](O)[C@@H]1O)C1CC(CCc2nc3cc(OC(F)(F)F)ccc3[nH]2)C1 (stereo partly drawn) [Compound 56, (1R,2S,3R,5R)-3-(4-amino-7H-pyrrolo[2,3-d]pyrimidin-7-yl)-5-((isopropyl(3-(2-(5-(trifluoromethoxy)-1H-benzo[d]imidazol-2-yl)ethyl)cyclobutyl)amino)methyl)cyclopentane-1,2-diol] | < 100 | –
5 | CC(C)(C)c1ccc2[nH]c(CC[C@H]3C[C@@H](N(C[C@H]4C[C@@H](n5ccc6c(N)ncnc65)[C@H](O)[C@@H]4O)C4CCC4)C3)nc2c1 [Compound 46, (1R,2S,3R,5R)-3-(4-amino-7H-pyrrolo[2,3-d]pyrimidin-7-yl)-5-((((1r,3S)-3-(2-(5-(tert-butyl)-1,1-benzo[d]imidazol-2-yl)ethyl)cyclobutyl)(cyclobutyl)amino)methyl)cyclopentane-1,2-diol] | < 100 | –
6 | CC(C)N(C[C@H]1O[C@@H](n2ccc3c(N)ncnc32)[C@H](O)[C@@H]1O)[C@H]1C[C@@H](CCc2nc3cc(OC(F)(F)F)ccc3[nH]2)C1 [Compound 87, (2R,3R,4S,5R)-2-(4-amino-7H-pyrrolo[2,3-d]pyrimidin-7-yl)-5-((isopropyl((1r,3S)-3-(2-(5-(trifluoromethoxy)-1H-benzo[d]imidazol-2-yl)ethyl)cyclobutyl)amino)methyl)tetrahydrofuran-3,4-diol] | < 100 | 0.8
7 | CC(C)N(C[C@H]1O[C@@H](n2cnc3c(N)ncnc32)[C@H](O)[C@@H]1O)[C@H]1C[C@H](CCc2nc3cc(C4CC4)ccc3[nH]2)C1 [Compound 119, (2R,3R,4S,5R)-2-(6-amino-9H-purin-9-yl)-5-((((1s,3R)-3-(2-(5-cyclopropyl-1H-benzo[d]imidazol-2-yl)ethyl)cyclobutyl) (isopropyl)amino)methyl)tetrahydrofuran-3,4-diol] | < 100 | –
8 | COCC(C)(C)c1ccc2[nH]c(CCC3CC(N(C)C[C@H]4O[C@@H](n5cnc6c(N)ncnc65)[C@H](O)[C@@H]4O)C3)nc2c1 (stereo partly drawn) [Compound 140, (2R,3R,4S,5R)-2-(6-amino-9H-purin-9-yl)-5-(((3-(2-(5-(1-methoxy-2-methylpropan-2-yl)-1H-benzo[d]imidazol-2-yl)ethyl)cyclobutyl) (methyl)amino)methyl) tetrahydrofuran-3,4-diol] | < 100 | –
9 | CC(C)CN(C[C@H]1C[C@@H](n2ccc3c(N)ncnc32)[C@H](O)[C@@H]1O)[C@H]1C[C@@H](CCc2nc3cc(C(C)(C)C)ccc3[nH]2)C1 [Compound 53, (1R,2S,3R,5R)-3-(4-amino-7H-pyrrolo[2,3-d]pyrimidin-7-yl)-5-((((1r,3S)-3-(2-(5-(tert-butyl)-1H-benzo[d]imidazol-2-yl)ethyl)cyclobutyl)(isobutyl)amino)methyl)cyclopentane-1,2-diol] | < 100 | –
10 | CC(C)N(C[C@H]1C[C@@H](n2ccc3c(N)ncnc32)[C@H](O)[C@@H]1O)C1CC(CCc2nc3cc(C(F)(F)F)c(Cl)cc3[nH]2)C1 (stereo partly drawn) [Compound 20, (1R,2S,3R,5R)-3-(4-amino-7H-pyrrolo[2,3-d]pyrimidin-7-yl)-5-(((3-(2-(6-chloro-5-(trifluoromethyl)-1H-benzo[d]imidazol-2-yl)ethyl)cyclobutyl)(isopropyl)amino)methyl)cyclopentane-1,2-diol] | < 100 | –
11 | CCN(C[C@H]1C[C@@H](n2ccc3c(N)ncnc32)[C@H](O)[C@@H]1O)C1CC(CCc2nc3cc(C(C)(C)C)ccc3[nH]2)C1 (stereo partly drawn) [Compound 25, (1R,2S,3R,5R)-3-(4-amino-7H-pyrrolo[2,3-d]pyrimidin-7-yl)-5-(((3-(2-(5-(tert-butyl)-1H-benzo[d]imidazol-2-yl)ethyl)cyclobutyl)(ethyl)amino)methyl)cyclopentane-1,2-diol] | < 100 | –
12 | CC(C)N(C[C@H]1C[C@@H](n2ccc3c(N)ncnc32)[C@H](O)[C@@H]1O)C1CC(CCc2nc3cc(C(C)(C)C)ccc3[nH]2)C1 (stereo partly drawn) [Compound 19, (1R,2S,3R,5R)-3-(4-amino-7H-pyrrolo[2,3-d]pyrimidin-7-yl)-5-(((3-(2-(5-(tert-butyl)-1H-benzo[d]imidazol-2-yl)ethyl)cyclobutyl)(isopropyl)amino)methyl)cyclopentane-1,2-diol] | < 100 | –
13 | CN(C[C@H]1O[C@@H](n2cnc3c(N)ncnc32)[C@H](O)[C@@H]1O)C1CC(CCc2nc3cc(C4(C#N)CC4)ccc3[nH]2)C1 (stereo partly drawn) [Compound 130, 1-(2-(2-(3-((((2R,3S,4R,5R)-5-(6-amino-9H-purin-9-yl)-3,4-dihydroxytetrahydro-furan-2-yl)methyl)(methyl)amino)cyclobutyl)ethyl)-1H-benzo[d]imidazol-5-yl)cyclo-propanecarbonitrile] | < 100 | –
14 | CN(C[C@H]1O[C@@H](n2cnc3c(N)ncnc32)[C@H](O)[C@@H]1O)[C@H]1C[C@H](CCc2nc3cc(C(C)(C)C)ccc3[nH]2)C1 [Compound 72, (2R,3R,4S,5R)-2-(6-amino-9H-purin-9-yl)-5-((((1s,3R)-3-(2-(5-(tert-butyl)-1H-benzo[d]imidazol-2-yl)ethyl)cyclobutyl)(methyl)amino)methyl)tetrahydrofuran-3,4-diol] | < 100 | –

The next lines start with results.

Row | IC50 (class symbols) [nM] | SMILES | IC50 [nM]
15 | < 100 | CN(C[C@H]1O[C@@H](n2cnc3c(N)ncnc32)[C@H](O)[C@@H]1O)[C@H]1C[C@H](CCc2nc3cc(OC(F)(F)F)ccc3[nH]2)C1 [Compound 97] | –
16 | < 100 | CN(C[C@H]1C[C@@H](n2ccc3c(N)ncnc32)[C@H](O)[C@@H]1O)C1CC(CCc2nc3cc(OC(F)(F)F)ccc3[nH]2)C1 (stereo partly drawn) [Compound 24, (1R,2S,3R,5R)-3-(4-amino-7H-pyrrolo[2,3-d]pyrimidin-7-yl)-5-((methyl(3-(2-(5-(trifluoromethoxy)-1H-benzo[d]imidazol-2-yl)ethyl)cyclobutyl)amino)methyl)cyclopentane-1,2-diol] | –
17 | 1000 to 10000 | CC(C)N(CC1CC(Cc2nc3cc(C(F)(F)F)ccc3[nH]2)C1)C[C@H]1C[C@@H](n2ccc3c(N)ncnc32)[C@H](O)[C@@H]1O (stereo partly drawn) [Compound 15] | –
18 | < 100 | CCN(C[C@H]1O[C@@H](n2cnc3c(N)ncnc32)[C@H](O)[C@@H]1O)[C@H]1C[C@@H](CCc2nc3cc(C(C)(C)C)ccc3[nH]2)C1 [Compound 73, (2R,3R,4S,5R)-2-(6-amino-9H-purin-9-yl)-5-((((1r,35)-3-(2-(5-(tert-butyl)-1H-benzo[d]imidazol-2-yl)ethyl)cyclobutyl)(ethyl)amino)methyl)tetrahydrofuran-3,4-diol] | –
19 | 1000 to 10000 | CC(C)(C)c1ccc2[nH]c(CC[C@H]3C[C@@H](N(C[C@H]4O[C@@H](n5ccc6c(N)ncnc65)[C@H](O)[C@@H]4O)CC(F)(F)F)C3)nc2c1 [Compound 78, (2R,3R,4S,5R)-2-(4-amino-7H-pyrrolo[2,3-d]pyrimidin-7-yl)-5-((((1r,3S)-3-(2-(5-(tert-butyl)-1H-benzo[d]imidazol-2-yl)ethyl)cyclobutyl)(2,2,2-trifluoroethyl)amino)methyl)tetrahydrofuran-3,4-diol] | –
20 | < 100 | CN(C[C@H]1C[C@@H](n2ccc3c(N)ncnc32)[C@H](O)[C@@H]1O)C1CC(CCc2nc3cc(C(F)(F)F)ccc3[nH]2)C1 (stereo partly drawn) [Compound 13, (1R,2S,3R,5R)-3-(4-amino-7H-pyrrolo[2,3-d]pyrimidin-7-yl)-5-((methyl(3-(2-(5-(trifluoromethyl)-1H-benzo[d]imidazol-2-yl)ethyl)cyclobutyl)amino)methyl)cyclopentane-1,2-diol] | –
21 | < 100 | CCN(C[C@H]1O[C@@H](n2cnc3c(N)ncnc32)[C@H](O)[C@@H]1O)C1CC(CCc2nc3cc(C(C)(C)C)ccc3[nH]2)C1 (stereo partly drawn) [Compound 79, (2R,3R,4S,5R)-2-(6-amino-9H-purin-9-yl)-5-(((3-(2-(5-(tert-butyl)-1H-benzo[d]imidazol-2-yl)ethyl)cyclobutyl) (ethyl)amino)methyl) tetrahydrofuran-3,4-diol] | –
22 | < 100 | CC(C)N(C[C@H]1C[C@@H](n2cnc3c(N)ncnc32)[C@H](O)[C@@H]1O)C1CC(CCc2nc3cc(C(C)(C)C)ccc3[nH]2)C1 (stereo partly drawn) [Compound 50, (1R,2S,3R,5R)-3-(6-amino-9H-purin-9-yl)-5-(((3-(2-(5-(tert-butyl)-1H-benzo[d]imidazol-2-yl)ethyl)cyclobutyl)(isopropyl)amino)methyl)cyclopentane-1,2-diol] | –
23 | < 100 | CC(C)N(C[C@H]1O[C@@H](n2cnc3c(N)ncnc32)[C@H](O)[C@@H]1O)C1CC(CCc2nc3cc(C(C)(C)C#N)ccc3[nH]2)C1 (stereo partly drawn) [Compound 120, 2-(2-(2-(3-((((2R,3S,4R,5R)-5-(6-amino-9H-purin-9-yl)-3,4-dihydroxytetrahydro-furan-2-yl)methyl)(isopropyl)amino)cyclobutyl)ethyl)-1H-benzo[d]imidazol-5-yl)-2-methylpropanenitrile] | –
